According to paper PMC8583417, “Evaluation of the Antimicrobial Efficacy of N-Acetyl-L-Cysteine, Rhamnolipids, and Usnic Acid—Novel Approaches to Fight Food-Borne Pathogens” (International Journal of Molecular Sciences, 2021):

Tests used:
[1] = tested on: E. coli 683/17; experiment: CLSM analysis, biofilm prevention; assay type: cell-based, Escherichia coli; conditions: 24 h exposure; for Thickness (µm) subCBM80: substance at subinhibitory concentration, mean ± SD
Procedure: (§1) Biofilm prevention and removal analyses were performed using previously determined minimum inhibitory and subinhibitory concentrations for metabolic activity (MICBM80, subCBM80; MICMPB80, subCMPB80) of NAC, RLs, and UA specific for each tested strain. Selected concentrations were used to evaluate the inhibition of biofilm formation (biofilm prevention) and the reduction in previously formed biofilms (biofilm removal) for the same set of microorganisms, with the exception of S. Infantis, which was excluded from the analysis due to its inability to form biofilm in the selected microtiter plate. Biofilm prevention and removal were observed using CLSM with specific staining to distinguish between live and membrane-compromised cells. Images were analyzed to evaluate (i). the total volume of the biomass, (ii). ratios of live and membrane-compromised cells, and (iii). to calculate biofilm volume reduction for individual organisms after the respective treatment types. The total biofilm volume was normalized by the area of the well and expressed as an average biofilm thickness. Complete data are provided in Supplementary Materials (Tables S1–S8).
(§2) For both inhibition and reduction of biofilms, overnight cultures from BHI were diluted in TSB + 1% Glc to reach an absorbance of 0.08 to 0.1 at 625 nm. The inoculum (150 µL) was transferred into wells of the 96-well flat-bottomed Ibidiμ-Plate (Ibidi, Gräfelfing, Germany) and mixed with 150 µL of each of the three tested substances in technical quadruplicates, followed by incubation at 37 °C for 24 h. Simultaneously, the prepared bacterial suspensions were inoculated to an additional microtiter plate (200 µL) and allowed to form biofilm overnight (18 h at 37 °C). After the incubation, the content of the well was drained off, and 200 µL of each of the three tested substances was added to the plate, which was then incubated for an additional 20 h. The used concentrations of the substances represented the subinhibitory and minimum inhibitory concentrations for metabolic activity (subCBM80, MICBM80; subCMPB80, MICMPB80). Both setups contained a positive control of the bacterial growth (inoculum mixed with sterile TSB + 1% Glc medium) and a control monitoring microbial contamination (sterile medium). Non-treated wells were used as a positive control for comparison between non-treated and treated biofilm mass.
(§3) Prior to the imaging, the wells were stained with the LIVE/DEAD® BacLight™ Bacterial Viability Kit (Thermo Fisher Scientific, MA, USA) following the manufacturer’s guidelines and Drago et al.. Briefly, equal volumes of SYTO® 9 and propidium iodide were combined with the sterile distilled water to reach a final concentration of […]. The biofilm mass was stained using 300 µL of the staining solution per well followed by incubation at 37 °C in the dark for 15 min. Stained wells were washed once with sterile distilled water, which was then added to each well (300 µL). Images were acquired with an inverted Leica SP5 CLSM using a 1.25× dry objective (WD 3.7 mm, Z-resolution 27 µm, up to 24 Z-stacks per well) to visualize an entire well. Samples were kept at the cultivation conditions (37 °C, 5% CO2, 90% humidity) with an OkoLabs stage top environmental chamber (Oko Labs, PA, USA). Fluorophore excitation lasers and emission bandwidths were as follows: SYTO® 9 (ex/em 485/498 nm) 488 nm excitation, 495 to 550 nm emission collection; propidium iodide (ex/em 535/617 nm) 561 nm excitation, 595 to 650 nm emission collection. The laser beam scanned the visual field at a frequency of 600 Hz. The wells were captured in snapshots of 1024 × 1024 pixels representing the area of 153.76 mm^2.
(§4) All collected images were statistically evaluated to quantify biovolume utilizing the surface estimation procedure described in Parker et al.. […]

[2] = tested on: E. coli 693/17; experiment: CLSM analysis, biofilm prevention; assay type: cell-based, Escherichia coli; conditions: 24 h exposure; for Thickness (µm) subCBM80: substance at subinhibitory concentration, mean ± SD
Procedure: as §1, §2, §3, §4

[3] = tested on: S. Enteritidis ATCC 13076; experiment: MIC for metabolic activity of preformed biofilm (MTT reduction assay); assay type: cell-based, Salmonella enterica Enteritidis; conditions: for MICMPB80: ≥80% inhibition, 20 h with substance
Procedure: Ten concentrations of NAC, RLs, and UA were tested to determine the minimum inhibitory concentration for planktonic growth, and subsequently, the six highest concentrations were applied on preformed biofilms to evaluate the biofilm eradication ability of the compounds. MIC was defined as the lowest substance concentration able to inhibit at least 80% of microbial growth (MICPC80 for planktonic cells, MICBC80 for further growth of biofilm cells), inhibit 80% of metabolic activity (MICBM80 for biofilm metabolic activity, MICMPB80 for metabolic activity of preformed biofilm), prevent biofilm formation by at least 80% (MICBF80 for biofilm formation), or reduce a preformed biofilm by at least 80% (MICBR80 for biofilm reduction). The results of MICs are summarized in Table 1 (planktonic cells) and Table 2 (biofilm-associated cells).
The determination of MICs was performed according to Chlumsky et al.. […] To evaluate planktonic cells growth (MICPC80) and further growth of biofilm cells (MICBC80), the optical density of the content of the microtiter plates was measured spectrophotometrically at 625 nm before and after 24 h (for biofilm formation) of cultivation or before and after additional 20 h incubation with the tested compound (for preformed biofilm). […] To evaluate the inhibition of biofilm formation (MICBF80) and reduction in preformed biofilms (MICBR80), biomass was quantified using crystal violet staining, and its metabolic activity (MICBM80 and MICMPB80) was estimated by using the MTT (thiazyl tetrazolium bromide, Sigma-Aldrich, USA) reduction assay, both measured spectrophotometrically at 595 nm.
All inhibitions were calculated using the formula of Chlumsky et al. below (Equation (1)):(1) A625(595)nm inhibition (%)=A625(595)nm (control) – A625(595)nm(natural substance)/A625(595)nm (control)× 100 where A625(595)nm (control) is the absorbance of bacterial suspension/biofilm itself, and A625(595)nm(natural substance) is the absorbance of the bacterial suspension/biofilm with the added natural substance (NAC, RLs, and UA). […]

[4] = tested on: S. aureus 1241; experiment: CLSM analysis, biofilm prevention; assay type: cell-based, Staphylococcus aureus; conditions: for Thickness (µm) MICBM80 / Thickness (µm) subCBM80: 24 h exposure; for Thickness (µm) MICBM80: substance at its MICBM80, mean ± SD; for Thickness (µm) subCBM80: substance at subinhibitory concentration, mean ± SD
Procedure: as §1, §2, §3, §4

[5] = tested on: S. aureus 816; experiment: CLSM analysis, biofilm prevention; assay type: cell-based, Staphylococcus aureus; conditions: for Thickness (µm) MICBM80 / Thickness (µm) subCBM80: 24 h exposure; for Thickness (µm) MICBM80: substance at its MICBM80, mean ± SD; for Thickness (µm) subCBM80: substance at subinhibitory concentration, mean ± SD
Procedure: as §1, §2, §3, §4

[6] = substance at its MICBM80, mean ± SD
[7] = 24 h, MIC and subinhibitory concentration

Row | Compound | Thickness (µm) MICBM80 [1, 6] | Thickness (µm) subCBM80 [1] | Thickness (µm) MICBM80 [2, 6] | Thickness (µm) subCBM80 [2] | MICMPB80 [3] | proportion of membrane-compromised cells [4, 7] | Thickness (µm) MICBM80 [4] | Thickness (µm) subCBM80 [4] | Thickness (µm) MICBM80 [5] | Thickness (µm) subCBM80 [5] | maximal achieved inhibition (MICMPB80 not reached) ([3]; within tested concentrations) | proportion of membrane-compromised cells [5, 7]
1 | CC(=O)N[C@@H](CS)C(=O)O [NAC, N-Acetyl-L-cysteine] | 271 ± 50.7 µm | 229 ± 9.9 µm | 273 ± 40.8 µm | 181 ± 21.9 µm | 12,500 µg/mL | up to 25% | 236 ± 50.5 µm | 212 ± 16.1 µm | 104 ± 67.8 µm | 181 ± 57.7 µm |  | 
2 | CC(=O)c1c(O)c(C)c(O)c2c1OC1=CC(=O)C(C(C)=O)C(=O)C12C (single isomer, unassigned; (+)) [UA, (+)-usnic acid] |  | 269 ± 28.1 µm |  | 256 ± 12.6 µm | > 31.3 µg/mL |  | 367 ± 40.5 µm | 392 ± 21.7 µm | 237 ± 41.9 µm | 270 ± 21 µm | 53% | up to 15%
